Measured values taken from patent US4254110A, “Pentofuranosyl anthracyclines, intermediates in and method for their preparation and compositions and use thereof” (Farmitalia Carlo Erba S.p.A., priority 1979, dated 1981).
Values after ≈ are worked out from the molar mass of the structure shown. Where a name gives a salt, the structure may show the parent alone. Read-outs that look alike come from different tables or passages of the source.

Tests used:
P-388 leukemia = assay: Antitumor activity against P-388 leukemia in mice; type: in vivo; conditions: for Toxic Deaths: macroscopic autoptic findings; for antitumor activity compared with daunorubicin and doxorubicin: at the tolerated doses (100~200 mg/Kg)
Protocol: The antitumor activity of the same compounds was tested against P-388 leukemia in mice.
^(a) Mice were treated i.p. on day 1 after tumor cell inoculation.
^(b) Evaluated on the basis of macroscopic autoptic findings.
^(c) Injected as a water solution.
^(d) Injection as a 5% aqueous ethanol suspension.
^(e) Injected as a 1:9 Tween 80 : water suspension.

HeLa cells = assay: Cytotoxic activity against HeLa cells in vitro (effect on HeLa cells viability); type: cell-based; conditions: Homo sapiens, read-out: ID50 (effect on HeLa cells viability in vitro)
Protocol: The cytotoxic activity of several of the new compounds according to the invention were tested against HeLa cells in vitro (time of exposure to the compounds=24 hours) in comparison with daunorubicin and doxorubicin.

[1] = dose 50 mg/Kg i.p. on day 1, III-a as 5% aqueous ethanol suspension, others as 1:9 Tween 80:water suspension
[2] = dose 100 mg/Kg i.p. on day 1, III-a as 5% aqueous ethanol suspension, others as 1:9 Tween 80:water suspension
[3] = dose 200 mg/Kg i.p. on day 1, III-a as 5% aqueous ethanol suspension, others as 1:9 Tween 80:water suspension
[4] = dose 4.4 mg/Kg i.p. on day 1, water solution
[5] = dose 4.4 mg/Kg i.p. on day 1 after tumor cell inoculation, water solution
[6] = dose 6.6 mg/Kg i.p. on day 1, water solution
[7] = dose 6.6 mg/Kg i.p. on day 1 after tumor cell inoculation, water solution

| SMILES | T/C % (P-388 leukemia; [1]) [%] | Toxic Deaths (P-388 leukemia; [1]) | T/C % (P-388 leukemia; [2]) [%] | Toxic Deaths (P-388 leukemia; [2]) | T/C % (P-388 leukemia; [3]) [%] | Toxic Deaths (P-388 leukemia; [3]) | IC50 (HeLa cells; HeLa cells, 24 hours exposure) [ng/mL] | antitumor activity compared with daunorubicin and doxorubicin (P-388 leukemia) | Toxic Deaths (P-388 leukemia; dose 2.9 mg/Kg i.p. on day 1, water solution) | T/C % (P-388 leukemia; dose 2.9 mg/Kg i.p. on day 1 after tumor cell inoculation, water solution) [%] | Toxic Deaths (P-388 leukemia; [4]) | T/C % (P-388 leukemia; [5]) [%] | Toxic Deaths (P-388 leukemia; [6]) | T/C % (P-388 leukemia; [7]) [%] | IC50 (HeLa cells; HeLa, 24 h) [ng/mL] | Toxic Deaths (P-388 leukemia; dose 10.0 mg/Kg i.p. on day 1, water solution) | T/C % (P-388 leukemia; dose 10.0 mg/Kg i.p. on day 1 after tumor cell inoculation, water solution) [%] |
| --- | --- | --- | --- | --- | --- | --- | --- | --- | --- | --- | --- | --- | --- | --- | --- | --- | --- |
| COc1cccc2c1C(=O)c1c(O)c3c(c(O)c1C2=O)C[C@@](O)(C(C)=O)C[C@@H]3O[C@H]1CC(C=O)[C@H](C)O1 (single isomer, unassigned) [Compound III-b] | 110 | 0/10 | 110 | 0/10 | 125 | 0/9 | 1.75 (≈ 0.00343 µM) |  |  |  |  |  |  |  |  |  |  |
| COc1cccc2c1C(=O)c1c(O)c3c(c(O)c1C2=O)C[C@@](O)(C(=O)CO)C[C@@H]3O[C@H]1CC(C=O)[C@H](C)O1 (stereo partly drawn) [Compound III (R3 = OH), 7-O-(2,3,5-trideoxy-3-C-formyl-α-pentofuranosyl)-adriamycinone] | 163 | 0/9 | 190 | 0/9 | 231 | 1/7 | 140 (≈ 0.266 µM) |  |  |  |  |  |  |  |  |  |  |
| COc1cccc2c1C(=O)c1c(O)c3c(c(O)c1C2=O)C[C@@](O)(C(C)=O)C[C@@H]3O[C@H]1CC(C=O)[C@H](C)O1 (stereo partly drawn) [Compound III-a, 7-O-(2,3,5-trideoxy-3-C-formyl-α-L-threopentofuranosyl)-daunomycinone] | 168 | 0/8 | 163 | 0/5 | 190 | 2/5 | 320 (≈ 0.627 µM) | higher than or comparable to those of both daunorubicin and doxorubicin |  |  |  |  |  |  |  |  |  |
| COc1cccc2c1C(=O)c1c(O)c3c(c(O)c1C2=O)C[C@@](O)(C(C)=O)C[C@@H]3O[C@H]1CC(CO)[C@H](C)O1 (stereo partly drawn) [Compound IV (R3 = H), 7-O-(2,3,5-trideoxy-3-C-hydroxymethyl-α-L-threopentofuranosyl)-daunomycinone] | 130 | 0/7 | 160 | 0/6 | 220 | 0/5 | 1.6 (≈ 0.00312 µM) | higher than or comparable to those of both daunorubicin and doxorubicin |  |  |  |  |  |  |  |  |  |
| COc1cccc2c1C(=O)c1c(O)c3c(c(O)c1C2=O)C[C@@](O)(C(C)=O)C[C@@H]3O[C@H]1C[C@H](N)[C@H](O)[C@H](C)O1 [Daunorubicin . HCl, daunorubicin, reference compound] |  |  |  |  |  |  |  |  | 0/37 | 169 | 0/38 | 167 | 19/38 | 157 | 7.4 |  |  |
| COc1cccc2c1C(=O)c1c(O)c3c(c(O)c1C2=O)C[C@@](O)(C(=O)CO)C[C@@H]3O[C@H]1C[C@H](N)[C@H](O)[C@H](C)O1 [Doxorubicin . HCl, doxorubicin, reference compound] |  |  |  |  |  |  |  |  |  |  | 0/17 | 195 | 0/17 | 206 | 10 | 4/18 | 244 |
| COc1cccc2c1C(=O)c1c(O)c3c(c(O)c1C2=O)C[C@@](O)(C(=O)CO)C[C@@H]3O[C@H]1CC(C=O)[C@H](C)O1 (stereo partly drawn) [III (R3 =OH)] |  |  |  |  |  |  |  | higher than or comparable to those of both daunorubicin and doxorubicin |  |  |  |  |  |  |  |  |  |
